{
  "source": "patent US20040002514A1",
  "about": "“Topical use of hydroxyeicosatetraenoic acid compounds to treat psoriasis” (Alcon, Inc., priority 2002, published 2004)",
  "origin": "cited, not measured here",
  "key": {"[1]": {"system": "IL-8 production by human bone marrow stromal cells", "conditions": "1 μM to 0.1 nM"}, "[2]": {"system": "leukotriene B4 production or its activity"}, "[3]": {"system": "IL-6 synthesis by bone marrow stromal cells"}, "[4]": {"system": "psoriatic skin lesions"}, "[5]": {"system": "colitis", "conditions": "in vivo"}},
  "data": [
    {"smiles": "CCCCC[C@H](O)/C=C/C=C\\C/C=C\\C/C=C\\CCCC(=O)O", "note": "[15-HETE, 15-Hydroxyeicosatetraenoic acid]", "values": [
      {"measurement": "effect on spontaneous and serum-induced production of IL-8", "setting": "[1]", "result": "no effect"},
      {"measurement": "effect on leukotriene B4 production or its activity", "setting": "[2]", "result": "inhibitory effects"},
      {"measurement": "effect on spontaneous, serum- and cytokine-induced IL-6 synthesis", "setting": "[3]", "result": "no effect"},
      {"measurement": "improvement of psoriasis", "setting": "[4]; injected into psoriatic skin lesions", "result": "can improve psoriasis"},
      {"measurement": "amount required to cause a clinical effect", "setting": "[4]; intralesional injection, 0.1 ml of 10 lmol/L", "result": 300, "unit": "ng"},
      {"measurement": "anti-inflammatory properties in colitis", "setting": "[5]", "result": "minor anti-inflammatory properties"}
    ]}
  ]
}
